The source made the active and inactive calls. The calls are words filed in the database; no cut-off is given here.
Columns and labels:
HCT-15 = assay: cells; settings: Homo sapiens, HCT-15, 48 h
Description: Antiproliferative activity against human HCT-15 cells incubated for 48 hrs by CCK-8 assay

SW-620 = assay: cells; settings: Homo sapiens, SW-620, 48 h
Description: Antiproliferative activity against human SW-620 cells incubated for 48 hrs by CCK-8 assay

MDA-MB-231 = assay: Antiproliferative activity against human MDA-MB-231 cells incubated for 48 hrs by CCK-8 assay; format: functional, cell-based; settings: MDA-MB-231, 48 h
A549 = assay: Antiproliferative activity against human A549 cells incubated for 48 hrs by CCK-8 assay; format: functional, cell-based; settings: A549, 48 h
HT-29 = assay: cells; settings: Homo sapiens, HT-29, 48 h
Description: Antiproliferative activity against human HT-29 cells incubated for 48 hrs by CCK-8 assay

DLD-1 = assay: cells; settings: Homo sapiens, DLD-1, 48 h
Description: Antiproliferative activity against human DLD-1 cells incubated for 48 hrs by CCK-8 assay

[1] = Antiproliferative activity against rat H9c2 cells incubated for 48 hrs by CCK-8 assay; format: toxicity, cell-based
HCT-116 [2] = assay: Potency index, ratio of ONC201 IC50 to test compound IC50 for antiproliferative activity against human HCT-116 cells by CCK-8 assay; format: functional
U-251 = assay: Antiproliferative activity against human U-251 cells incubated for 48 hrs by CCK-8 assay; format: functional, cell-based; settings: U-251, 48 h
[3] = Antiproliferative activity against human HEK293 cells incubated for 48 hrs by CCK-8 assay; format: toxicity, cell-based
SW480 = assay: cells; settings: Homo sapiens, SW480, 48 h
Description: Antiproliferative activity against human SW480 cells incubated for 48 hrs by CCK-8 assay

HCT-116 [4] = assay: cells; settings: Homo sapiens, HCT-116, 48 h
Description: Antiproliferative activity against human HCT-116 cells incubated for 48 hrs by CCK-8 assay

Raji = assay: Antiproliferative activity against human Raji cells incubated for 48 hrs by CCK-8 assay; format: functional, cell-based
[5] = biological target: T1, ATP-dependent Clp protease proteolytic subunit, mitochondrial (Homo sapiens, UniProt Q16740); settings: filed as agonist
T1 sequence (Q16740 whole entry): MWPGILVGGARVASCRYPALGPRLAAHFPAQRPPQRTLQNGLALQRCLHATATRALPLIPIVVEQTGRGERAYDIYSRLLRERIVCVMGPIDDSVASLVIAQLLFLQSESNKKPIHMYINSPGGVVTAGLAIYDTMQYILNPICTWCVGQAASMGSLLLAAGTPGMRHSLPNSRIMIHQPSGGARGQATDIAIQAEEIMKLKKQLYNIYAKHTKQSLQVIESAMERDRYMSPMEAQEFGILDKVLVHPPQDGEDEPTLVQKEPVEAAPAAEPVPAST
Description: Binding affinity to human CLpP assessed as change in enthalpy by ITC method

Homo sapiens [6] = species on record: Homo sapiens; settings: filed as agonist
Description: Binding affinity to human CLpP Y138F/Q107A double mutant assessed as change in enthalpy by ITC method

[7] = biological target: T1, ATP-dependent Clp protease proteolytic subunit, mitochondrial; settings: filed as agonist; remark: listed apart in the source
Description: Binding affinity to human CLpP assessed as change in entropy by ITC method

[8] = biological target: T1, ATP-dependent Clp protease proteolytic subunit, mitochondrial; settings: filed as agonist, dose 100.0 µM, time 30.0 min
Homo sapiens [9] = species on record: Homo sapiens; settings: filed as agonist; remark: listed apart in the source
Description: Binding affinity to human CLpP Y138F/Q107A double mutant assessed as change in entropy by ITC method

HCT-116 [10] = settings: Homo sapiens, dose 12.5-50 nM, time 14.0 day

| IC50 (HCT-15) [µM] | IC50 (SW-620) [µM] | IC50 (MDA-MB-231) [µM] | IC50 (A549) [µM] | IC50 (HT-29) [µM] | IC50 (DLD-1) [µM] | IC50 (U-251) [µM] | IC50 (SW480) [µM] | IC50 (HCT-116 [4]) [µM] | IC50 (Raji) [µM] | SMILES | IC50 at 48 h [1] [µM] | Ratio IC50 (HCT-116 [2]) | IC50 at 48 h [3] [µM] | deltaH [5] [kcal/mol] | deltaH (Homo sapiens [6]) [kcal/mol] | deltaS [7] [J/mol.K] | ΔTm [8] [°C] | deltaS (Homo sapiens [9]) [J/mol.K] | inhibition (HCT-116 [10]) |
| --- | --- | --- | --- | --- | --- | --- | --- | --- | --- | --- | --- | --- | --- | --- | --- | --- | --- | --- | --- |
| 1.28 | 0.64 | 10.5 | 2.14 | 5.3 | 0.52 | 2.06 | 1.1 | 0.4 | 1.06 | Cc1ccccc1CN1CCn2c1nc(=O)c1c2CCN(Cc2ccccc2)C1 | > 50 | 10 | > 50 | – | – | – | – | – | – |
| – | – | – | – | – | – | – | – | – | – | O=c1nc2n(c3c1CN(Cc1ccccc1)CC3)CCN2Cc1ccc(F)c(Br)c1 | – | – | – | -14.9 | -2.73 | -77.4 | 20.9 | 54.3 | Active |
